From article PMC3416781, “Functional Characterizations of Chemosensory Proteins of the Alfalfa Plant Bug Adelphocoris lineolatus Indicate Their Involvement in Host Recognition” (PLoS ONE, 2012)
“Also recorded” adds a separate entry of the source. Blank lines part the entries; values can stand above or below the compound they belong to.

Experiments:
AlinCSP1 [1] = target: T1, AlinCSP1 (Adelphocoris lineolatus, UniProt J7EJ71); assay: Binding of fluorescent probe 1-NPN to AlinCSP1 (titration, Scatchard plot); details: 2 µM protein, 1-NPN 2-16 µM, read-out: dissociation constant of the AlinCSP1/1-NPN complex
T1 sequence (J7EJ71 entry or part of it): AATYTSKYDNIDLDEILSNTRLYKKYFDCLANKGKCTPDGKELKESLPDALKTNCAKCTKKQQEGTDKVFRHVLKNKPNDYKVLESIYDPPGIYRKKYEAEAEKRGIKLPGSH
Procedure: (§1) Fluorescence binding assays were performed on an F-380 fluorescence spectrophotometer (Tianjin, China) in a 1 cm light path quartz cuvette. The slit width used for excitation and emission was both 10 nm. The fluorescent probe N-phenyl-1-naphthylamine (1-NPN) was dissolved in methanol with a 1 mM stock solution. 1-NPN was excited at 337 nm and emission spectra were recorded between 390 nm and 530 nm.
(§2) All values reported were obtained from three independent measurements.
(§3) For determining binding constants, the intensity values corresponding to the maximum fluorescence emission were plotted against free ligand concentration. Bound ligand was evaluated from the values of fluorescence intensity assuming the protein was 100% active, with a stoichiometry of 1∶1 protein:ligand at saturation. The curves were linearized using Scatchard Plot. Dissociation constants of the competitors were calculated from the corresponding IC50 values, using the equation: KD = [IC50]/(1+[1-NPN]/K1-NPN), where [1-NPN] is the free concentration of 1-NPN and K1-NPN is the dissociation constant of the AlinCSP1-3/1-NPN complex.

AlinCSP2 [2] = target: T2, AlinCSP2 (Adelphocoris lineolatus, UniProt E7BLG5); assay: Binding of fluorescent probe 1-NPN to AlinCSP2 (titration, Scatchard plot); details: 2 µM protein, 1-NPN 2-16 µM, read-out: dissociation constant of the AlinCSP2/1-NPN complex
T2 sequence (E7BLG5 entry or part of it): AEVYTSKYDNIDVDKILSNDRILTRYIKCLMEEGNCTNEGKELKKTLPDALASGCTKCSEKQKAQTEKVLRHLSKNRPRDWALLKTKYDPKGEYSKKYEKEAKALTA
Procedure: as §1, §2, §3

AlinCSP3 [3] = target: T3, AlinCSP3 (Adelphocoris lineolatus, UniProt E7BLG4); assay: Binding of fluorescent probe 1-NPN to AlinCSP3 (titration, Scatchard plot); details: 2 µM protein, 1-NPN 2-16 µM, read-out: dissociation constant of the AlinCSP3/1-NPN complex
T3 sequence (E7BLG4 entry or part of it): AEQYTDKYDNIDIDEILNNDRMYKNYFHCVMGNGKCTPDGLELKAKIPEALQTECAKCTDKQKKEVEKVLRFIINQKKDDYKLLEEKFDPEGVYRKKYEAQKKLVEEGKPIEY
Procedure: as §1, §2, §3

AlinCSP1 [4] = target: T1, AlinCSP1; assay: biochemical; type: binding; details: for Ki: Figure 7B legend
Procedure: as §1, §2
(§4) For determining binding constants, the intensity values corresponding to the maximum fluorescence emission were plotted against free ligand concentration. Bound ligand was evaluated from the values of fluorescence intensity assuming the protein was 100% active, with a stoichiometry of 1∶1 protein:ligand at saturation. The curves were linearized using Scatchard Plot.

AlinCSP2 [5] = target: T2, AlinCSP2; assay: biochemical; type: binding; details: for Ki: Figure 7B legend
Procedure: as §1, §2, §4

AlinCSP3 [6] = target: T3, AlinCSP3; assay: biochemical; type: binding; details: for Ki: Figure 7B legend
Procedure: as §1, §2, §4

AlinCSP1-3 = assay: Fluorescence competitive binding assay, statements for the three CSPs together; design: species or system Adelphocoris lineolatus
Procedure: as §1, §2, §3

A. lineolatus antennae = assay: Electroantennogram (EAG) recordings; design: species or system Adelphocoris lineolatus; details: normalized to 2-octanone; for EAG response in words: male and female adult antennae, 10% (v/v) in paraffin oil, good ligand = more than 50% of 2-octanone response; for EAG response, male versus female antennae: Student t-test between sexes
From the text: Electrophysiological (EAG) recordings from each sex of adult individuals were made using Ag-AgCl glass pipette electrodes filled with 3 M KCl solution [69], [70]. The insects were anaesthetized by chilling, the antenna was amputated at the base and the tip of the antenna was cut off. The excised antenna was mounted between the electrodes by one teardrop of Spectra R360 electrically conductive gel (Syntech, Netherlands). The base of the antenna was connected to the reference electrode, while the terminal of tip-cut off antenna was connected to the recording electrode. An air stimulus controller CS-55 (Syntech, Netherlands) was used for air and chemical stimulants delivery with a constant flow of 10 ml/second flowed continuously over the antenna through the open end of the glass tube, which was positioned 1 cm from the antenna.
Twenty microliters of tested chemicals (100 µl/ml, 10% (v/v) dilution in paraffin oil except the hexadecanoic acid dissolved in hexane with 100 µg/ml) were applied to filter paper strips (1.5 cm×4 cm, Whatman No.1), and the solvent was allowed to evaporate for 30 sec before the paper strip was inserted into the glass Pasteur pipette cartridge (10 cm long, Fisher Scientific, Pittsburgh, Pennsylvania, USA). The chemicals were tested randomly, stimulus duration time was 0.5 second and an interval of at least 30 seconds was taken between stimulations for antennal recovery. Chemical odorants used for the EAG recordings are the same as used in the binding assays. […] The paraffin oil (Fluka, Buchs, Switzerland) was used to dissolve the chemicals and treated as control compound [71]. Each chemical was tested against six individual male and female antennae, and each antenna was tested three times. The signals were passed through a high impedance amplifier (CS-05 model, Syntech, the Netherlands), EAG responses were initially measured in millivolts (peak height of depolarization) and then converted to normalized responses by the Syntech EAG 2000 program (Syntech, the Netherlands). Response to the solvent control was subtracted from all normalized response and the normalized EAG responses were expressed as a percentage to the reference compound response. All results are presented as mean (±SE) normalized EAG responses. EAG responses between male and female individuals were compared with the Student t-test using SAS software.

[7] = u.d. = KD not calculated because IC50>50 µM, read-out: KD (µM) AlinCSP1, given as u.d.
[8] = u.d. = KD not calculated because IC50>50 µM, read-out: KD (µM) AlinCSP2, given as u.d.
[9] = u.d. = KD not calculated because IC50>50 µM, read-out: KD (µM) AlinCSP3, given as u.d.
[10] = KD (µM) AlinCSP1, 1-NPN and protein at 2 µM, 50 mM Tris-HCl pH 7.4, KD calculated from IC50, mean of three measurements
[11] = KD (µM) AlinCSP3, 1-NPN and protein at 2 µM, 50 mM Tris-HCl pH 7.4, KD calculated from IC50, mean of three measurements

SMILES: c1ccc(Nc2cccc3ccccc23)cc1 [1-NPN, N-phenyl-1-naphthylamine]
Kd (AlinCSP1 [1]): 1.83 µM | Kd (AlinCSP2 [2]): 1.92 µM | Kd (AlinCSP3 [3]): 4.45 µM

SMILES: C=C1CC/C=C(\C)CC[C@@H]2[C@@H]1CC2(C)C [β-Caryophyllene]
Kd (AlinCSP1 [4]; [10]): 9.22 ± 1.08 µM | binding to AlinCSP2 in words (AlinCSP2 [5]): failed to bind with AlinCSP2 | Kd (AlinCSP2 [5]; KD (µM) AlinCSP2, given as u.d., u.d. = KD not calculated because IC50>50 µM): > 50 µM | Kd (AlinCSP3 [6]; [11]): 12.3 ± 2.42 µM | EAG response in words (A. lineolatus antennae): no notable EAG response

SMILES: CCCCC(C)=O [2-Hexanone]
Kd (AlinCSP1 [4]; [10]): 19.5 ± 1.73 µM | Kd (AlinCSP2 [5]; KD (µM) AlinCSP2, 1-NPN and protein at 2 µM, 50 mM Tris-HCl pH 7.4, KD calculated from IC50, mean of three measurements): 20.4 ± 1.82 µM | Kd (AlinCSP3 [6]; [11]): 22.5 ± 1.88 µM | EAG response, male versus female antennae (A. lineolatus antennae): significantly higher EAG responses from male antennae than from female antennae

The next lines start with results.

Ki (AlinCSP1 [4]): 118 µM | Kd (AlinCSP1 [4]; [7]): > 50 µM | Ki (AlinCSP2 [5]): 137 µM | Kd (AlinCSP2 [5]; [8]): > 50 µM | Kd (AlinCSP3 [6]; [9]): > 50 µM | IC50 (AlinCSP1-3; displacement of 1-NPN, all three CSPs): > 50 µM
SMILES: CCCCCCCCCCCCCCCC(=O)O [hexadecanoic acid]
EAG response in words (A. lineolatus antennae): did not elicit notably EAG responses

Ki (AlinCSP1 [4]): 95.2 µM | Kd (AlinCSP1 [4]; [7]): > 50 µM | Ki (AlinCSP2 [5]): 92.5 µM | Kd (AlinCSP2 [5]; [8]): > 50 µM | Ki (AlinCSP3 [6]): 101 µM | Kd (AlinCSP3 [6]; [9]): > 50 µM
SMILES: CCCC(=O)OCC [Ethyl butyrate]
binding to the three CSPs in words (AlinCSP1-3): failed to bind with any of the three CSPs | EAG response in words (A. lineolatus antennae): elicited significant antennal responses from both male and female; also recorded: elicited high EAG responses

Kd (AlinCSP1 [4]; 1-NPN and protein at 2 µM, 50 mM Tris-HCl pH 7.4, KD calculated from IC50, mean of three measurements, read-out: KD (µM) AlinCSP1): 45.4 ± 2.43 µM | Kd (AlinCSP2 [5]; [8]): > 50 µM | Kd (AlinCSP3 [6]; 1-NPN and protein at 2 µM, 50 mM Tris-HCl pH 7.4, KD calculated from IC50, mean of three measurements, read-out: KD (µM) AlinCSP3): 37.1 ± 1.01 µM
SMILES: CCCCC(C)O (centres unmarked) [2-Hexanol]
EAG response, male versus female antennae (A. lineolatus antennae): significantly higher EAG responses from female antennae than from male antennae

Kd (AlinCSP1 [4]; [7]): > 50 µM | Ki (AlinCSP2 [5]): 113 µM | Kd (AlinCSP2 [5]; [8]): > 50 µM | Ki (AlinCSP3 [6]): 148 µM | Kd (AlinCSP3 [6]; [9]): > 50 µM
SMILES: CCC/C=C/COC(=O)CCC [(E)-2-Hexenyl butyrate]
binding to the three CSPs in words (AlinCSP1-3): failed to bind with any of the three CSPs | EAG response in words (A. lineolatus antennae): elicited significant antennal responses from both male and female; also recorded: elicited high EAG responses
